Measurements published in patent publication US20250073281A1, “LACTOBACILLUS REUTERI HAVING IMPROVED ANTI-AGING AND HAIR HEALTH ENHANCEMENT EFFECTS, AND APPLICATION THEREOF” (priority 2021, published 2025).
≈ marks a conversion by molar mass, not a printed value. Like-named read-outs stand apart in the source and are kept apart here.

Tested on: Lactobacillus reuteri VHProbi E18
Assay: Antibiotic tolerance experiment, MIC by broth microdilution
Type: cell-based
Conditions: for MIC: antibiotic against Lactobacillus reuteri VHProbi E18
Method: The minimum inhibitory concentration (MIC) value of antibiotics against Lactobacillus reuteri VHProbi E18 was determined by the broth microdilution method.

[1] = Limosilactobacillus reuteri, read-out: MIC

Molecule	sensitivity of Lactobacillus reuteri VHProbi E18 to the antibiotic	MIC [1] [µg/mL]	MIC [µg/mL]
CC1(C)S[C@@H]2[C@H](NC(=O)[C@H](N)c3ccccc3)C(=O)N2[C@H]1C(=O)O [Ampicillin]	sensitive	1 (≈ 2.86 µM)	
CCC[C@@H]1C[C@@H](C(=O)N[C@@H]([C@H]2O[C@H](SC)[C@H](O)[C@@H](O)[C@H]2O)[C@H](C)Cl)N(C)C1 [Clindamycin]		256 (≈ 602 µM)	
CC[C@H]1OC(=O)[C@H](C)[C@@H](O[C@H]2C[C@@](C)(OC)[C@@H](O)[C@H](C)O2)[C@H](C)[C@@H](O[C@@H]2O[C@H](C)C[C@H](N(C)C)[C@H]2O)[C@](C)(O)C[C@@H](C)C(=O)[C@H](C)[C@@H](O)[C@]1(C)O [Erythromycin]	sensitive	1 (≈ 1.36 µM)	
[H]/N=C(/N)N[C@H]1[C@H](O)[C@@H](O)[C@H](O[C@@H]2O[C@@H](C)[C@](O)(C=O)[C@H]2O[C@@H]2O[C@@H](CO)[C@H](O)[C@@H](O)[C@@H]2NC)[C@@H](N/C(N)=N\[H])[C@@H]1O [Streptomycin]		512 (≈ 880 µM)	
CN(C)[C@@H]1C(O)=C(C(N)=O)C(=O)[C@@]2(O)C(O)=C3C(=O)c4c(O)cccc4[C@@](C)(O)[C@H]3C[C@@H]12 [Tetracycline]		16 (≈ 36 µM)	
Gentamicin			256
